Assay results taken from ChEMBL document CHEMBL1138171, “5-Heteroatom-substituted pyrazoles as canine COX-2 inhibitors: Part 2. Structure-activity relationship studies of 5-alkylethers and 5-thioethers” (Bioorg Med Chem Lett, 2006).
pIC50: −log10 of the molar value.

Tests used:
Cyclooxygenase-2 = molecular target: T1, Cyclooxygenase-2 (Canis lupus familiaris, UniProt Q8SPQ9)
T1 sequence (Q8SPQ9 whole entry): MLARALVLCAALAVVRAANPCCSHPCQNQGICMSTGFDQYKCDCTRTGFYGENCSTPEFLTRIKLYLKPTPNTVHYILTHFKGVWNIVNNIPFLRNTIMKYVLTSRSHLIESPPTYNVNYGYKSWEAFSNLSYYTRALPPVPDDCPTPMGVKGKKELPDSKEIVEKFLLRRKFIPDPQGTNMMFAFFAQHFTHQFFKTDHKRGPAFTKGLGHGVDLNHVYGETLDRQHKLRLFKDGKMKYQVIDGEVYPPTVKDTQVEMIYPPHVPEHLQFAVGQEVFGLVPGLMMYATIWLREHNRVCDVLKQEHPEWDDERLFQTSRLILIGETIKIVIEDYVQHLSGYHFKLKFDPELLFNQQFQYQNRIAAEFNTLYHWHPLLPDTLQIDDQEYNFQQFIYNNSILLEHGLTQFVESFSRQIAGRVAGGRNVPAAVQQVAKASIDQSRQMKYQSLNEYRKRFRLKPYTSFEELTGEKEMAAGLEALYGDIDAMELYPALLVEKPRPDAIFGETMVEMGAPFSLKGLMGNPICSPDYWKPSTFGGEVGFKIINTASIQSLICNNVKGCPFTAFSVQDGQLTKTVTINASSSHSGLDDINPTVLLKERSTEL
Description: Inhibition of COX2 by canine whole blood assay

Canis lupus familiaris = species on record: Canis lupus familiaris; assay: Selectivity for COX1 over COX2 by canine whole blood assay
[1] = molecular target: T2, Prostaglandin G/H synthase 1 (Canis lupus familiaris, UniProt Q8HZR1); assay: Inhibition of COX1 by canine whole blood assay; assay type: tissue-based
T2 sequence (Q8HZR1 whole entry): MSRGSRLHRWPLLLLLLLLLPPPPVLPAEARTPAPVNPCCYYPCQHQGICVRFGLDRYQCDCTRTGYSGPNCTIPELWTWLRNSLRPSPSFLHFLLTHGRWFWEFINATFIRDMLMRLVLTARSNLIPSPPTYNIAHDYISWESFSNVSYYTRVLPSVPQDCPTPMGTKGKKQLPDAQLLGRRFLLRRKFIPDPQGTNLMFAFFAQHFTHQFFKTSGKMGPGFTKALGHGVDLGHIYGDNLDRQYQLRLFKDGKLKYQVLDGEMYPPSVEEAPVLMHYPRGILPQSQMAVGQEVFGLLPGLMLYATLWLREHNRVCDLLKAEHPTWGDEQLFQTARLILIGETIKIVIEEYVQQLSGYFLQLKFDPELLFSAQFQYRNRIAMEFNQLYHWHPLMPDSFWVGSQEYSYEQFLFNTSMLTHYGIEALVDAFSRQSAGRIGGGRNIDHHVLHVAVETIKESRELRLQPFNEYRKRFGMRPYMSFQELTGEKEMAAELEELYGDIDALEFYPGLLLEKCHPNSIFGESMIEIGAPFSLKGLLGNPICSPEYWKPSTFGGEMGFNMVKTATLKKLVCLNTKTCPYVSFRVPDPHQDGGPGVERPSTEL

[2] = Cmax in Beagle dog at 5 mg/kg, po; assay type: ADME, organism-based, Canis lupus familiaris; parameters: dose 5 mg/kg, route oral; settings: in vivo
[3] = Half life in Beagle dog at 5 mg/kg, po; assay type: ADME, organism-based, Canis lupus familiaris; parameters: dose 5 mg/kg, route oral; settings: in vivo
Canis familiaris [4] = species on record: Canis familiaris; settings: dog, in vivo, po, 5 mg/kg
Description: AUC in Beagle dog at 5 mg/kg, po

[5] = Tmax in Beagle dog at 5 mg/kg, po; assay type: ADME, organism-based, Canis lupus familiaris; parameters: dose 5 mg/kg, route oral; settings: in vivo
[6] = Cmax in Beagle dog at 2 mg/kg, po; assay type: ADME, organism-based, Canis lupus familiaris; parameters: dose 2 mg/kg, route oral; settings: in vivo
[7] = Half life in Beagle dog at 2 mg/kg, po; assay type: ADME, organism-based, Canis lupus familiaris; parameters: dose 2 mg/kg, route oral; settings: in vivo
[8] = Tmax in Beagle dog at 2 mg/kg, po; assay type: ADME, organism-based, Canis lupus familiaris; parameters: dose 2 mg/kg, route oral; settings: in vivo
Canis familiaris [9] = assay: AUC in Beagle dog at 2 mg/kg, po; assay type: ADME, organism-based, Canis lupus familiaris, Plasma; parameters: dose 2 mg/kg, route oral; settings: in vivo

Row | SMILES | pIC50 (Cyclooxygenase-2) | Ratio (Canis lupus familiaris) | pIC50 [1] | further results
1 | CCCC(C)Oc1c(C#N)c(C(F)(F)F)nn1-c1ccc(S(C)(=O)=O)cn1 (stereo not drawn) | < 6.30 |  |  | 
2 | CS(=O)(=O)c1ccc(-n2nc(C(F)(F)F)c(C#N)c2OC2CCOC2)nc1 (stereo not drawn) | < 6.30 |  |  | 
3 | CS(=O)(=O)c1ccc(-n2nc(C(F)(F)F)cc2OCc2ccccc2)nc1 | < 6.30 |  |  | 
4 | CS(=O)(=O)c1ccc(-n2nc(C(F)(F)F)c(C#N)c2Oc2ccccc2)nc1 | < 6.30 |  |  | 
5 | CS(=O)(=O)c1ccc(-n2nc(C(F)(F)F)cc2OCC2CC2)nc1 | < 6.30 |  |  | 
6 | CS(=O)(=O)c1ccc(-n2nc(C(F)(F)F)cc2OCc2ccncc2)nc1 | < 6.30 |  |  | 
7 | CS(=O)(=O)c1ccc(-n2nc(C(F)(F)F)c(C#N)c2SCc2ccccc2F)nc1 | 7.40 | 18.4 | 6.22 | 
8 | CCCCCSc1c(C#N)c(C(F)(F)F)nn1-c1ccc(S(C)(=O)=O)cn1 | 6.52 | 11.7 | 5.46 | 
9 | CS(=O)(=O)c1ccc(-n2nc(C(F)(F)F)c(C#N)c2SCc2ccccc2)nc1 | 7.10 | 12.1 | 6.05 | 
10 | Cc1cccc(Oc2c(C#N)c(C(F)(F)F)nn2-c2ccc(S(C)(=O)=O)cn2)c1C | 6.77 | 0.3 | 7.00 | 
11 | CS(=O)(=O)c1ccc(-n2nc(C(F)(F)F)cc2OCc2cccc3ccccc23)nc1 | < 6.30 |  |  | 
12 | CC1CCC(Oc2c(C#N)c(C(F)(F)F)nn2-c2ccc(S(C)(=O)=O)cn2)C1 (stereo not drawn) | 6.80 | 47 | 5.12 | 
13 | CC(C)COc1cc(C(F)(F)F)nn1-c1ccc(S(C)(=O)=O)cn1 | 5.39 |  |  | 
14 | Cc1c(C(F)(F)F)nn(-c2ccc(S(C)(=O)=O)cn2)c1OC(C)C | < 6.30 |  |  | 
15 | CCC(C)Sc1c(C#N)c(C(F)(F)F)nn1-c1ccc(S(C)(=O)=O)cn1 (stereo not drawn) | > 7.30 | > 29.5 | 5.82 | 
16 | CS(=O)(=O)c1ccc(-n2nc(C(F)(F)F)c(C#N)c2OC2CCCC2)nc1 | 6.68 |  |  | 
17 | CCC(CC)Oc1c(C)c(C(F)(F)F)nn1-c1ccc(S(C)(=O)=O)cn1 | < 6.30 |  |  | 
18 | CS(=O)(=O)c1ccc(-n2nc(C(F)(F)F)c(C#N)c2OCC2CCCC2)nc1 | 7.22 | 6.8 | 6.40 | 
19 | CS(=O)(=O)c1ccc(-n2nc(C(F)(F)F)c(C#N)c2Oc2cccc3c2CCCC3)nc1 | 6.05 | 0.1 | 7.00 | 
20 | CC(C)Oc1cc(C(F)(F)F)nn1-c1ccc(S(C)(=O)=O)cn1 | < 6.30 |  |  | Cmax [2]: 679 ng/mL; half-life [3]: 34.8 h; AUC (Canis familiaris [4]): 6980 ng·h/mL; Tmax [5]: 0.8 h
21 | CCC(Oc1c(C#N)c(C(F)(F)F)nn1-c1ccc(S(C)(=O)=O)cn1)C(C)C (stereo not drawn) | 6.77 | > 287 | < 4.30 | 
22 | CS(=O)(=O)c1ccc(-n2nc(C(F)(F)F)cc2OCc2cccc(F)c2)nc1 | < 6.30 |  |  | 
23 | CS(=O)(=O)c1ccc(-n2nc(C(F)(F)F)c(C#N)c2OCC2CC=CCC2)nc1 (stereo not drawn) | 6.85 | 78 | 4.97 | Cmax [6]: 363 ng/mL; half-life [7]: 2 h; Tmax [8]: 1 h; AUC (Canis familiaris [9]): 742 ng·h/mL

Row | SMILES | pIC50 (Cyclooxygenase-2) | Ratio (Canis lupus familiaris) | pIC50 [1] | further results
24 | CCC(CC)Oc1c(C#N)c(C(F)(F)F)nn1-c1ccc(S(C)(=O)=O)cn1 | > 6.30 |  |  | 
25 | CCC(COC)Oc1c(C#N)c(C(F)(F)F)nn1-c1ccc(S(C)(=O)=O)cn1 (stereo not drawn) | < 6.30 |  |  | 
26 | CS(=O)(=O)c1ccc(-n2nc(C(F)(F)F)cc2OC2CCCC2)nc1 | < 6.30 |  |  | 
27 | COc1cc(C(F)(F)F)nn1-c1ccc(S(C)(=O)=O)cn1 | < 6.30 |  |  | 
28 | CS(=O)(=O)c1ccc(-n2nc(C(F)(F)F)cc2OC2CCCCC2)nc1 | < 6.30 |  |  | 
29 | CS(=O)(=O)c1ccc(-n2nc(C(F)(F)F)c(C#N)c2OCC2CCC2)nc1 | 7.10 |  |  | 
30 | CS(=O)(=O)c1ccc(-n2nc(C(F)(F)F)c(C#N)c2OC2CCC2)nc1 | 6.26 | 46.3 | 4.60 | 
31 | CS(=O)(=O)c1ccc(-n2nc(C(F)(F)F)c(C#N)c2Sc2ccccc2)nc1 | 7.22 | 3.6 | 6.70 | 
32 | CCOCCSc1c(C#N)c(C(F)(F)F)nn1-c1ccc(S(C)(=O)=O)cn1 | 6.77 | 11.8 | 5.70 | 
33 | CS(=O)(=O)c1ccc(-n2nc(C(F)(F)F)c(C#N)c2SC2CCCCC2)nc1 | 7.00 | 31.2 | 5.49 | 
34 | C[C@@H]1CN(c2c(C#N)c(C(F)F)nn2-c2ccc(S(C)(=O)=O)cn2)C[C@H](C)O1 | 6.85 | > 357 | < 4.30 | AUC (Canis familiaris [9]): 4830 ng·h/mL
35 | CC(C)C(C)Oc1c(C#N)c(C(F)(F)F)nn1-c1ccc(S(C)(=O)=O)cn1 (stereo not drawn) | 7.05 | 127 | 4.93 | 
36 | Cc1c(C(F)(F)F)nn(-c2ccc(S(C)(=O)=O)cn2)c1OCC(C)C | < 6.30 |  |  | 
37 | CCCSc1c(C#N)c(C(F)(F)F)nn1-c1ccc(S(C)(=O)=O)cn1 | > 7.30 | > 3.8 | 6.70 | 
38 | CC(C)CCCSc1c(C#N)c(C(F)(F)F)nn1-c1ccc(S(C)(=O)=O)cn1 | 6.40 | 8.1 | 5.48 | 
39 | CS(=O)(=O)c1ccc(-n2nc(C(F)(F)F)c(C#N)c2OC2CCCCCC2)nc1 | 7.15 | 117 | 5.10 | 
40 | CC(C)COc1c(C#N)c(C(F)(F)F)nn1-c1ccc(S(C)(=O)=O)cn1 | 6.96 | 92 | 5.00 | 
41 | CC1CCCCC1Oc1c(C#N)c(C(F)(F)F)nn1-c1ccc(S(C)(=O)=O)cn1 (stereo not drawn) | 6.70 | 35 | 5.15 | 
42 | CC(C)Oc1c(Cl)c(C(F)(F)F)nn1-c1ccc(S(C)(=O)=O)cn1 | < 6.30 |  |  | 
43 | CCCCOc1cc(C(F)(F)F)nn1-c1ccc(S(C)(=O)=O)cn1 | < 6.30 |  |  | 
44 | CCC(CC)Oc1cc(C(F)(F)F)nn1-c1ccc(S(C)(=O)=O)cn1 | 4.71 |  |  | 
45 | C=C1CCC(COc2c(C#N)c(C(F)(F)F)nn2-c2ccc(S(C)(=O)=O)cn2)CC1 | > 7.05 | 340 | 4.53 | 
